The values that follow come from US11266645B2, “Methods for treating lymphoma” (Alexion Pharmaceuticals, Inc., priority 2018, dated 2022).

In data set [1] the test system is Primary CLL cells. In words: Primary CLL cells with IL-4/CD40L, immunoblotting and annexin V/PI viability. The class given is cell-based, human. The settings on record: for IL-4/CD40L induced Mcl-1 and Bcl-XL expression: 1 μM. As to the method: Combination studies were performed with 10 or 100 nM venetoclax or 300 and 1000 nM S63846. Cell viability was assessed by annexin V/PI using flow cytometry and changes in protein expression by immunoblotting.

For data set [2], the system named is patients with relapsed or refractory PTCL. Conditions: cited from earlier work; for ORR / CR / DOR: relapsed/refractory PTCL; for ORR: brentuximab only anaplastic large cell lymphoma.

Read-outs that look alike come from different tables or passages of the source.

As for `CC[C@H](Nc1ncnc2[nH]cnc12)c1nc2cccc(F)c2c(=O)n1-c1ccccc1` [idelalisib, reference compound], in data set [1], the “IL-4/CD40L induced Mcl-1 and Bcl-XL expression” value is recorded as “significantly reduced”.

With `NC(=O)c1cnc(N[C@@H]2CCCC[C@@H]2N)nc1Nc1cccc(-n2nccn2)c1` [PRT062607, reference compound], the “IL-4/CD40L induced Mcl-1 and Bcl-XL expression” value in data set [1] was “significantly reduced”.

`Cc1c(-c2c(-c3ccc(F)o3)sc3ncnc(O[C@H](Cc4ccccc4OCc4ccnn4CC(F)(F)F)C(=O)O)c23)ccc(OCCN2CCN(C)CC2)c1Cl` [S63845, reference compound]: in data set [1] (CLL cells), the “synergy with BCR kinase inhibitors including cerdulatinib, CLL cell death” value is on record as “synergized”.

Regarding `C#CCC(Cc1cnc2nc(N)nc(N)c2n1)c1ccc(C(=O)N[C@@H](CCC(=O)O)C(=O)O)cc1` (some centres unmarked) [Pralatrexate], in data set [2] (Table 1), the “Grade 3/4 AEs: Anemia” value was “Anemia: 17%”, the “Grade 3/4 AEs: Fatigue” value is recorded as “Fatigue: 7%”, the “Grade 3/4 AEs: Mucositis” value is “Mucositis: 21%” and the “Grade 3/4 AEs: Neutropenia” value is “Neutropenia: 20%”. The “Grade 3/4 AEs: Thrombocytopenia” value in data set [2] (Table 1) is “Thrombocytopenia: 33%”. Further, in data set [2] (r/r PTCL, Table 2), the “Toxicities ≥ Grade 3: Anemia” value is 17%, the “Toxicities ≥ Grade 3: Asthenia/Fatigue” value is recorded as 8%, the “Toxicities ≥ Grade 3: Leukopenia” value was 7% and the “Toxicities ≥ Grade 3: Mucositis” value is 23%. For the same molecule, in data set [2] (r/r PTCL, Table 2), the “Toxicities ≥ Grade 3: Neutropenia” value is 20%, the “Toxicities ≥ Grade 3: Pyrexia” value is 2%, the “Toxicities ≥ Grade 3: Sepsis” value is given as 5% and the “Toxicities ≥ Grade 3: Thrombocytopenia” value is 33%. In addition, in data set [2], the ORR entry is on record as “ORR: 27%”, the CR result is given as “(6% CR)” and the DOR entry was “DOR: 9.4 months”. Further, in data set [2] (listed as pralatrexate), the ORR entry is listed as “approximately 25%”.

Take `C/C=C1\NC(=O)[C@H]2CSSCC/C=C/[C@H](CC(=O)N[C@H](C(C)C)C(=O)N2)OC(=O)[C@H](C(C)C)NC1=O` [Romidepsin]: in data set [2] (Table 1), the “Grade 3/4 AEs: Fatigue” value is listed as “Fatigue: 13%”, the “Grade 3/4 AEs: Nausea” value was “Nausea: 4%” and the “Grade 3/4 AEs: Thrombocytopenia” value is reported as “Thrombocytopenia: 21%”. In data set [2] (r/r PTCL, Table 2), the “Toxicities ≥ Grade 3: Anemia” value was 11-28%, the “Toxicities ≥ Grade 3: Asthenia/Fatigue” value was 8-19%, the “Toxicities ≥ Grade 3: Infection” value is reported as 19% and the “Toxicities ≥ Grade 3: Leukopenia” value is on record as 6-45%. Further, in data set [2] (r/r PTCL, Table 2), the “Toxicities ≥ Grade 3: Neutropenia” value is given as 20-47%, the “Toxicities ≥ Grade 3: Pyrexia” value is reported as 6-17%, the “Toxicities ≥ Grade 3: Sepsis” value was 5% and the “Toxicities ≥ Grade 3: Thrombocytopenia” value is recorded as 24-36%.

In the case of `c1cn2cc(-c3ccc4cn[nH]c4c3)nc(Nc3ccc(N4CCOCC4)cc3)c2n1` [entospletinib, reference compound], in data set [1], the “IL-4/CD40L induced Mcl-1 and Bcl-XL expression” value is reported as “significantly reduced”.

Turning to `O=C(/C=C/c1cccc(S(=O)(=O)Nc2ccccc2)c1)NO` [Belinostat], in data set [2] (Table 1), the “Grade 3/4 AEs: Anemia” value is recorded as “Anemia: 11%”, the “Grade 3/4 AEs: Fatigue” value is on record as “Fatigue: 5%” and the “Grade 3/4 AEs: Thrombocytopenia” value is on record as “Thrombocytopenia: 7%”. Also, in data set [2] (r/r PTCL, Table 2), the “Toxicities ≥ Grade 3: Anemia” value is reported as 11%, the “Toxicities ≥ Grade 3: Asthenia/Fatigue” value is on record as 5%, the “Toxicities ≥ Grade 3: Infection” value is 8.5%^ and the “Toxicities ≥ Grade 3: Pyrexia” value is 2%. Moreover, the “Toxicities ≥ Grade 3: Thrombocytopenia” value in data set [2] (r/r PTCL, Table 2) is recorded as 7%. In data set [2], the ORR entry is recorded as “ORR: 26%”, the CR result is recorded as “(11% CR)” and the DOR entry is given as “DOR: 8.4 months”. Further, the ORR entry in data set [2] (listed as belinostat) was “approximately 25%”.

As for Brentuximab, in data set [2] (Table 1), the “Grade 3/4 AEs: Neutropenia” value is “Neutropenia: 21%”, the “Grade 3/4 AEs: Peripheral sensory neuropathy” value is reported as “Peripheral sensory neuropathy: 10%” and the “Grade 3/4 AEs: Thrombocytopenia” value was “Thrombocytopenia: 10%”. In addition, in data set [2] (r/r PTCL, Table 2), the “Toxicities ≥ Grade 3: Anemia” value is 2%, the “Toxicities ≥ Grade 3: Asthenia/Fatigue” value is on record as 4%, the “Toxicities ≥ Grade 3: Diarrhea/Colitis” value is 3% and the “Toxicities ≥ Grade 3: Neutropenia” value is 21%. Moreover, in data set [2] (r/r PTCL, Table 2), the “Toxicities ≥ Grade 3: Pyrexia” value is 2% and the “Toxicities ≥ Grade 3: Thrombocytopenia” value is listed as 10%. Moreover, in data set [2], the ORR result was “ORR: 86%”, the CR result is on record as “(57% CR)” and the DOR entry is listed as “DOR: 12.6 months”.
